Test results from patent US9181303B2, “Treatment of bacterial infections with cyclic antimicrobial peptides” (N[…], priority 2005, dated 2015).
Several values for one entry are separate records, joined by “and”; a condition that tells them apart may be missing. Equal entries are not always repeated.

Tests used:
T. rubrum = assay: Broth dilution antifungal susceptibility testing (CLSI M38-P), T. rubrum; format: cell-based, Trichophyton rubrum; settings: for MIC versus T. rubrum: T. rubrum cultures
Procedure: (§1) Broth Dilution Antifungal Susceptibility Testing
(§2) The sensitivity of relevant fungal strains to the cyclized peptides was determined using Clinical Laboratory Standard Institute (CLSI; formerly NCCLS) Approved Standards. Fungal susceptibility was tested using “Reference Method for Broth Dilution Antifungal Susceptibility Testing of Filamentous Fungi; Approved Standard M38-P”, and yeast susceptibility was tested using “Reference Method for Broth Dilution Antifungal Susceptibility Testing of Yeasts; Approved Standard—Second Edition M27-A”.
T. rubrum susceptibility to peptides 1-8 was tested.

T. interdigitale = assay: Broth dilution antifungal susceptibility testing, T. interdigitale; format: cell-based, Trichophyton interdigitale; settings: for Activity towards T. interdigitale: in words
Procedure: as §1, §2
T. interdigitale susceptibility to peptides 2-8 was tested. Peptides 2, 4 and 6 were active towards T. interdigitale.

C. neoformans = assay: Broth dilution antifungal susceptibility testing of yeasts (M27-A), C. neoformans; format: cell-based, Cryptococcus neoformans
Procedure: as §1, §2
C. neoformans susceptibility to peptides 4 and 6-8 was tested using “Reference Method for Broth Dilution Antifungal Susceptibility Testing of Yeasts; Approved Standard—Second Edition M27-A”.

E. coli = assay: Broth dilution antibacterial susceptibility testing (CLSI M7-A7), E. coli; format: cell-based; settings: for MIC versus E. coli: growth over 16 hours at 37° C.
Procedure: (§3) Broth Dilution Antibacterial Susceptibility Testing
(§4) The sensitivity of relevant bacterial strains to the cyclized peptides was determined using Clinical Laboratory Standard Institute (CLSI; formerly NCCLS) Approved Standards. Bacterial susceptibility was tested using “Methods for Dilution Antimicrobial Susceptibility Tests for Bacteria That Grow […]; Approved Standard—Seventh Edition M7-A7”
(§5) Cultures of E. coli and Staphylococcus aureus were exposed to Peptide 1 and the MIC after growth over the following 16 hours at 37° C. was 1 mM for both organisms (Table 2).

S. aureus = assay: Broth dilution antibacterial susceptibility testing (CLSI M7-A7), S. aureus; format: cell-based, Staphylococcus aureus
Procedure: as §3, §4, §5

T. mentagrophytes = assay: Broth dilution antifungal susceptibility testing, T. mentagrophytes; format: cell-based, Trichophyton mentagrophytes
Procedure: as §1, §2

M. furfur = assay: Broth dilution antifungal susceptibility testing, M. furfur; format: cell-based, Malassezia furfur; settings: M. furfur DSM6170
Procedure: as §1, §2

S. brevicaulis = assay: Broth dilution antifungal susceptibility testing, S. brevicaulis; format: cell-based, Scopulariopsis brevicaulis
Procedure: as §1, §2

A. niger = assay: Broth dilution antifungal susceptibility testing, A. niger; format: cell-based; settings: A. niger NCPF2022
Procedure: as §1, §2

A. terreus = assay: Broth dilution antifungal susceptibility testing, A. terreus; format: cell-based; settings: A. terreus NCPF2729
Procedure: as §1, §2

Fusarium oxysporum = assay: Broth dilution antifungal susceptibility testing, Fusarium oxysporum; format: cell-based; settings: Fusarium oxysporum NCPF2722
Procedure: as §1, §2

Fusarium spp = assay: Broth dilution antifungal susceptibility testing, Fusarium spp; format: cell-based
Procedure: as §1, §2

C. albicans = assay: Broth dilution antifungal susceptibility testing of yeasts, C. albicans; format: cell-based
Procedure: as §1, §2

C. krusei = assay: Broth dilution antifungal susceptibility testing of yeasts, C. krusei; format: cell-based
Procedure: as §1, §2

C. parapsilosis = assay: Broth dilution antifungal susceptibility testing of yeasts, C. parapsilosis; format: cell-based
Procedure: as §1, §2

Ps. aeruginosa = assay: Broth dilution antibacterial susceptibility testing, Ps. aeruginosa; format: cell-based
Procedure: as §3, §4

B. cepacia = assay: Broth dilution antibacterial susceptibility testing, B. cepacia; format: cell-based, Burkholderia cepacia; settings: B. cepacia ATCC25609
Procedure: as §3, §4

P. acnes = assay: Broth dilution antibacterial susceptibility testing, P. acnes; format: cell-based; settings: P. acnes DSMZ1897
Procedure: as §3, §4

S. epidermidis = assay: Broth dilution antibacterial susceptibility testing, S. epidermidis; format: cell-based, Staphylococcus epidermidis; settings: S. epidermidis ATCC12228
Procedure: as §3, §4

C. difficile = assay: Broth dilution antibacterial susceptibility testing, C. difficile; format: cell-based, Clostridium difficile; settings: C. difficile NCTC11209
Procedure: as §3, §4

“Cyclic-DR-DR-DR-DR-DR-DR-DR-G [Peptide 6]” was tested, and the “MIC versus T. rubrum” value (T. rubrum) was 1000 µM, the “MIC versus T. interdigitale” value (T. interdigitale) was 250 µM and the “Activity towards T. interdigitale” value (T. interdigitale) was “active”. The “MIC versus C. neoformans” value (C. neoformans) was 500 µM.

With “Cyclic-DO-DO-DO-DO-DO-DO-DO-G [Peptide 7]” the “MIC versus T. rubrum” value (T. rubrum) was >4000 µM, the “MIC versus T. interdigitale” value (T. interdigitale) was >4000 µM and the “MIC versus C. neoformans” value (C. neoformans) was 2000 µM.

In the case of Cyclic-K-K-K-K-K-K-K [Peptide 1], the “MIC versus T. rubrum” value (T. rubrum) is reported as 100 µM, the “MIC versus E. coli” value (E. coli) is reported as 1000 µM and the “MIC versus S. aureus” value (S. aureus; growth over 16 hours at 37° C.) is reported as 1000 µM.

With Cyclic-O-O-O-O-O-O-O-G [Peptide 5] the “MIC versus T. rubrum” value (T. rubrum) was 4000 µM and the “MIC versus T. interdigitale” value (T. interdigitale) was >4000 µM.

With Cyclic-R-R-R-R-R-R-R-G [Peptide 4] the “MIC versus T. rubrum” value (T. rubrum) was 2000 µM, the “MIC versus T. interdigitale” value (T. interdigitale) was 500 µM and the “Activity towards T. interdigitale” value (T. interdigitale) was “active”. For the same substance, the “MIC versus C. neoformans” value (C. neoformans) was 1000 µM.

In the case of Cyclic-K-K-K-K-K-K-K-G [Peptide 3], the “MIC versus T. rubrum” value (T. rubrum) is reported as 4000 µM and the “MIC versus T. interdigitale” value (T. interdigitale) is reported as >4000 µM.

Cyclic-R-R-R-R-R-R-R [Peptide 2] was tested, and the “MIC” value (T. rubrum; T. rubrum 7 Clinical Isolates) was 500 to 1000 µM, the “MIC” value (T. rubrum; T. rubrum NCPF118) was 250 µM and the “MIC versus T. rubrum” value (T. rubrum) was 250 µM and 200 µM. The “MIC versus T. interdigitale” value (T. interdigitale) was <125 µM, the “MIC” value (T. interdigitale; T. interdigitale NCPF335) was <125 µM and the “Activity towards T. interdigitale” value (T. interdigitale) was “active”. The “MIC” value (E. coli; E. coli NCTC12900) was 100 µM, the “MIC” value (E. coli; E. coli, No strain designation) was 100 µM and the “MIC versus E. coli” value (E. coli) was 100 µM. The “MIC” value (S. aureus; S. aureus 16 Clinical Isolates) was >3800 µM, the “MIC” value (S. aureus; S. aureus ANS46, MRSA) was 950 µM and the “MIC” value (S. aureus; S. aureus ATCC12598) was 950 µM. The “MIC” value (S. aureus; S. aureus ATCC25923) was >100 µM, the “MIC” value (S. aureus; S. aureus Col, MRSA) was 950 µM and the “MIC” value (S. aureus; S. aureus MW2, MRSA) was 950 µM. For the same substance, the “MIC” value (S. aureus; S. aureus N315, MRSA) was 950 µM, the “MIC” value (S. aureus; S. aureus NCTC6571, MSSA) was >1900 µM and the “MIC” value (S. aureus; S. aureus NCTC8325) was >1900 µM. For the same substance, the “MIC” value (S. aureus; S. aureus NCTC10442, MRSA) was 250 µM, the “MIC” value (S. aureus; S. aureus NCTC10788) was >1900 µM and the “MIC” value (S. aureus; S. aureus, No strain designation) was 250 µM. The “MIC” value (T. mentagrophytes; T. mentagrophytes DM2006 978) was 500 µM, the “MIC” value (T. mentagrophytes; T. mentagrophytes DM2006 1023) was 500 µM and the “MIC” value (M. furfur) was 0.031 mM. The “MIC” value (S. brevicaulis; S. brevicaulis DM2006 1025) was 500 µM, the “MIC” value (S. brevicaulis; S. brevicaulis NCPF2177) was 500 µM and the “MIC” value (A. niger) was 500 µM. For the same substance, the “MIC” value (A. terreus) was >2000 µM, the “MIC” value (Fusarium oxysporum) was >2000 µM and the “MIC” value (Fusarium spp; Fusarium spp DM2006 294) was >2000 µM. The “MIC” value (Fusarium spp; Fusarium spp DM2006 495) was >2000 µM, the “MIC” value (Fusarium spp; Fusarium spp DM2006 1026) was >2000 µM and the “MIC” value (C. albicans; C. albicans AM2003-020) was >2000 µM. The “MIC” value (C. albicans; C. albicans ATCC24433) was >2000 µM, the “MIC” value (C. albicans; C. albicans ATCC90028) was >2000 µM and the “MIC” value (C. albicans; C. albicans IHEM3742) was >2000 µM. The “MIC” value (C. albicans; C. albicans NCTC3179) was >2000 µM, the “MIC” value (C. albicans; C. albicans s20122.073) was >2000 µM and the “MIC” value (C. krusei; C. krusei ATCC6258) was 125 µM. For the same substance, the “MIC” value (C. krusei; C. krusei NCPT3953) was 128 to 256 µM, the “MIC” value (C. parapsilosis; C. parapsilosis ATCC22019) was 250 µM and the “MIC” value (C. parapsilosis; C. parapsilosis ATCC90018) was 1000 µM. The “MIC” value (Ps. aeruginosa; Ps. aeruginosa ATCC27853 (first entry, r42)) was >1900 µM, the “MIC” value (Ps. aeruginosa; Ps. aeruginosa ATCC27853 (second entry, r44)) was >2000 µM and the “MIC” value (Ps. aeruginosa; Ps. aeruginosa DSM50071) was >2000 µM. For the same substance, the “MIC” value (B. cepacia) was >1900 µM, the “MIC” value (P. acnes) was 125 µM and the “MIC” value (S. epidermidis) was 25 µM. The “MIC” value (C. difficile) was >2000 µM.

“Cyclic-DK-DK-DK-DK-DK-DK-DK-G [Peptide 8]” was tested, and the “MIC versus T. rubrum” value (T. rubrum) was > 4000 µM, the “MIC versus T. interdigitale” value (T. interdigitale) was >4000 µM and the “MIC versus C. neoformans” value (C. neoformans) was 500 µM.
